Active and inactive are the calls of the source. No cut-off for these calls is given here.
Experiments:
Plasmodium falciparum = experiment: Antiplasmodial activity against asexual blood stage Plasmodium falciparum 3D7A MR4 infected in human RBCs assessed as decrease in [3H]-hypoxanthine incorporation pretreated for 24 hrs in presence of hypoxanthine followed by [3H]-hypoxanthine addition after 24 hrs by microbeta scintillation counter analysis; assay type: functional, organism-based
[1] = target: T1, Glycylpeptide N-tetradecanoyltransferase (Plasmodium falciparum (isolate 3D7)) (UniProt Q8ILW6); experiment: Binding affinity to Plasmodium falciparum NMT (27 to 410 residues) expressed in Escherichia coli Rosetta (DE3) assessed as change in melting temperature at 100 uM in presence of 100 uM myristoyl-CoA by Sypro orange dye based differential scanning fluorimetry (reference value: 0 degreeC)
T1 sequence (whole entry): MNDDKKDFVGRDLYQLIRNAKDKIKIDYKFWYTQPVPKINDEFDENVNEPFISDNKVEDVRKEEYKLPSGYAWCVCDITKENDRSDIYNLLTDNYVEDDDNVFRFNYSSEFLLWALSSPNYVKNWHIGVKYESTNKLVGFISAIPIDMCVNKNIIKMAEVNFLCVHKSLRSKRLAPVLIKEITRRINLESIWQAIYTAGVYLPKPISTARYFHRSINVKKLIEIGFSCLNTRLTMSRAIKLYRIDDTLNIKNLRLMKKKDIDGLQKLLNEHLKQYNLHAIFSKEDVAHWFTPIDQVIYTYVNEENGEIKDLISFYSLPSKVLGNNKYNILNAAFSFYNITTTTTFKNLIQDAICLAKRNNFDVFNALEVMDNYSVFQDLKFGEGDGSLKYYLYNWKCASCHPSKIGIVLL

[2] = target: T1, Glycylpeptide N-tetradecanoyltransferase (Plasmodium falciparum (isolate 3D7)); experiment: Binding affinity to Plasmodium falciparum NMT (27 to 410 residues) expressed in Escherichia coli Rosetta (DE3) assessed as change in melting temperature at 100 uM in absence of 100 uM myristoyl-CoA by Sypro orange dye based differential scanning fluorimetry (reference value: 0 degreeC)
[3] = target: T1, Glycylpeptide N-tetradecanoyltransferase (Plasmodium falciparum (isolate 3D7)); experiment: Competitive inhibition of Plasmodium falciparum NMT (27 to 410 residues) expressed in Escherichia coli Rosetta (DE3) using H-GLYVSRLFNRLFQKK-NH2 as substrate

ΔTm [1] [°C] | ΔTm [2] [°C] | inhibition [3] | Compound | Activity (Plasmodium falciparum)
8.05 | 1.84 | – | O=C(c1ccc2c(c1)N(Cc1ccccc1)C(=O)c1ccccc1[S+]2[O-])N1CCCCC1 (stereo not drawn) | inactive
2.16 | -0.3 | Active | O=C(c1cccc(NCc2cc(-c3ccc(Cl)cc3)c[nH]c2=O)c1)N1CCOCC1 | inactive
6.17 | -0.02 | Active | Cc1ccc(-n2nc(C(=O)N3CCCN(C)CC3)c3ccccc32)cc1 | inactive
6.57 | -2.91 | Active | Clc1cccc(O[C@H]2C[C@H](NCc3cnc4[nH]ccc4c3)C2)c1Cl | inactive
7.33 | 1.42 | – | CCN(c1ccccc1)S(=O)(=O)c1ccc(Cl)c(C(=O)Nc2ccccc2N2CCCC2=O)c1 | inactive

Source: ChEMBL document CHEMBL4376863, “Identification of Selective Inhibitors of Plasmodium N-Myristoyltransferase by High-Throughput Screening” (J Med Chem, 2020)
